Results taken from US20230295181A1, “INHIBITOR OF APOPTOSIS (IAP) PROTEIN ANTAGONISTS” (Sanford Burnham Prebys Medical Discovery Institute, priority 2020, published 2023).
Structures can show the parent of a compound that is named as a salt.

System: SKOV-3 cancer cell lines
Assay: SKOV-3 cell viability after treatment with 10 μM test compound
Format: cell-based
Settings: for viability at 10 µM: Homo sapiens, SK-OV-3, 10 micromolar test compound, SKOV-3 cells; for % viability after treatment with 10 micromolar of test compound (SKOV-3 cells): 10 micromolar test compound
Method: SKOV-3 cancer cell lines were treated with a test compound, either as a pure enantiomer or a mixture of stereoisomers, at a concentration of 10 μM. Cell viability was evaluated following treatment with a compound as disclosed in Table B. Viability of cancer cells following treatment is indicated according to the following legend:
A=0-25% viability B=26-50% viability C=>50% viability

Row | SMILES | viability at 10 µM [%] | % viability after treatment with 10 micromolar of test compound (SKOV-3 cells) (hydrochloride) | also measured
1 | CN[C@@H](C)C(=O)N[C@H]1Cc2ccc(OC)cc2[C@H]2CC(C)(C)C(C(=O)NC(c3ccccc3)c3ccccc3)N2C1=O (single isomer, unassigned) [Compound 6, hydrochloride] | 26 to 50 | – | –
2 | CN[C@@H](C)C(=O)N[C@H]1Cc2c([nH]c3ccccc23)[C@H]2CC(C)(C)C(C(=O)N[C@@H]3CCCc4ccccc43)N2C1=O (stereo in doubt) [Compound 3, (3S, 6S,12bR)-2,2-dimethyl-6-((S)-2-(methylamino)propanamido)-5-oxo-N—((R)-1,2,3,4-tetrahydronaphthalen-1-yl)-1,2,3,5,6,7,12,12b-octahydropyrrolo[1′,2′:1,2]azepino[3,4-b]indole-3-carboxamide hydrochloride] | > 50 | – | –
3 | CN[C@@H](C)C(=O)N[C@H]1CCOC2c3ccncc3C(C(=O)N[C@@H]3CCCc4ccccc43)N2C1=O (stereo partly drawn) [Compound 4, (4S)-4-((S)-2-(methylamino)propanamido)-5-oxo-N—((R)-1,2,3,4-tetrahydronaphthalen-1-yl)-2,3,4,5,7,11b-hexahydropyrido[4′,3′:3,4]pyrrolo[2,1-b][1,3]oxazepine-7-carboxamide dihydrochloride] | > 50 | – | –
4 | CN[C@@H](C)C(=O)N[C@H]1Cc2cc(OC)ccc2[C@H]2CC(C)(C)C(C(=O)NC(c3ccccc3)c3ccccc3)N2C1=O (stereo partly drawn) [Compound 5, (6S,11bR)—N-benzhydryl-9-methoxy-2,2-dimethyl-6-((S)-2-(methylamino)propanamido)-5-oxo-2,3,5,6,7,11b-hexahydro-1H-benzo[c]pyrrolo[1,2-a]azepine-3-carboxamide] | > 50 | – | –
5 | CN[C@@H](C)C(=O)N[C@H]1Cc2cc(OC)ccc2[C@H]2CC(C)(C)C(C(=O)N[C@@H]3CCCc4ccccc43)N2C1=O (stereo partly shown) [Compound 7] | – | – | % viability after treatment with 10 micromolar of test compound (SKOV-3 cells): B (B=26-50% viability)
6 | CN[C@@H](C)C(=O)N[C@H]1Cc2cc(OC)ccc2[C@H]2CC(C)(C)[C@H](C(=O)N[C@@H]3CCCc4ccccc43)N2C1=O [Compound 8, (6S,11bR)-9-methoxy-2,2-dimethyl-6-((S)-2-(methylamino)propanamido)-5-oxo-N—((R)-1,2,3,4-tetrahydronaphthalen-1-yl)-2,3,5,6,7,11b-hexahydro-1H-benzo[c]pyrrolo[1,2-a]azepine-3-carboxamide hydrochloride] | 26 to 50 | – | –
7 | CN[C@@H](C)C(=O)N[C@H]1Cc2ccc(OC)cc2[C@H]2CC(C)(C)[C@H](C(=O)N[C@@H]3CCCc4ccccc43)N2C1=O [Compound 10, (6S,11bR)-10-methoxy-2,2-dimethyl-6-((S)-2-(methylamino)propanamido)-5-oxo-N—((R)-1,2,3,4-tetrahydronaphthalen-1-yl)-2,3,5,6,7,11b-hexahydro-1H-benzo[c]pyrrolo[1,2-a]azepine-3-carboxamide hydrochloride] | 26 to 50 | – | –
8 | C=CCC1(CC=C)C[C@@H]2OCC[C@H](NC(=O)[C@H](C)NC)C(=O)N2C1C(=O)N[C@@H]1CCCc2ccccc21 (stereo partly drawn) [Compound 12, (4S,9aS)-8,8-diallyl-4-((S)-2-(methylamino)propanamido)-5-oxo-N—((R)-1,2,3,4-tetrahydronaphthalen-1-yl)octahydropyrrolo[2,1-b][1,3]oxazepine-7-carboxamide hydrochloride] | 26 to 50 | – | –
9 | C=CCC1C[C@@H]2OCC[C@H](NC(=O)[C@H](C)NC)C(=O)N2[C@H]1C(=O)N[C@@H]1CCCc2ccccc21 (stereo partly drawn) [Compound 13, (4S,9aS)-8,8-allyl-4-((S)-2-(methylamino)propanamido)-5-oxo-N—((R)-1,2,3,4-tetrahydronaphthalen-1-yl)octahydropyrrolo[2,1-b][1,3]oxazepine-7-carboxamide hydrochloride] | 26 to 50 | – | –
10 | CCC1(CC)C[C@@H]2OCC[C@H](NC(=O)[C@H](C)NC)C(=O)N2[C@H]1C(=O)N[C@@H]1CCCc2ccccc21 [Compound 19, (4S)-8,8-diethyl-4-((S)-2-(methylamino)propanamido)-5-oxo-N—((R)-1,2,3,4-tetrahydronaphthalen-1-yl)octahydropyrrolo[2,1-b][1,3]oxazepine-7-carboxamide hydrochloride] | 26 to 50 | – | –
11 | CCC1C[C@@H]2OCC[C@H](NC(=O)[C@H](C)NC)C(=O)N2C1C(=O)N[C@@H]1CCCc2ccccc21 (stereo partly drawn) [Compound 20, (4S)-8,8-ethyl-4-((S)-2-(methylamino)propanamido)-5-oxo-N—((R)-1,2,3,4-tetrahydronaphthalen-1-yl)octahydropyrrolo[2,1-b][1,3]oxazepine-7-carboxamide hydrochloride] | 26 to 50 | – | –
12 | CN[C@@H](C)C(=O)N[C@H]1CCO[C@H]2CC(CCc3ccccc3)(CCc3ccccc3)[C@H](C(=O)N[C@@H]3CCCc4ccccc43)N2C1=O [Compound 22, (4S,9aS)-4-((S)-2-(methylamino)propanamido)-5-oxo-8,8-diphenethyl-N—((R)-1,2,3,4-tetrahydronaphthalen-1-yl)octahydropyrrolo[2,1-b][1,3]oxazepine-7-carboxamide hydrochloride] | 0 to 25 | – | –
13 | CN[C@@H](C)C(=O)N[C@H]1CCO[C@H]2CC(CCc3ccccc3)(CCc3ccccc3)C(C(=O)N[C@@H]3CCCc4ccccc43)N2C1=O (stereo partly drawn) [Compound 23, (4S,9aS)-4-((S)-2-(methylamino)propanamido)-5-oxo-8,8-diphenethyl-N—((R)-1,2,3,4-tetrahydronaphthalen-1-yl)octahydropyrrolo[2,1-b][1,3]oxazepine-7-carboxamide hydrochloride] | 26 to 50 | – | –
14 | CN[C@@H](C)C(=O)N[C@H]1CCO[C@H]2CC(CCc3ccccc3)(CCc3ccccc3)[C@@H](C(=O)N[C@@H]3CCCc4ccccc43)N2C1=O [Compound 24, (4S,9aS)-4-((S)-2-(methylamino)propanamido)-5-oxo-8,8-diphenethyl-N—((R)-1,2,3,4-tetrahydronaphthalen-1-yl)octahydropyrrolo[2,1-b][1,3]oxazepine-7-carboxamide hydrochloride] | – | B (B=26-50% viability) | –
15 | CN[C@@H](C)C(=O)N[C@H]1CCO[C@H]2CC(CCc3ccccc3)(CCc3ccccc3)[C@@H](C(=O)N[C@@H]3CCCc4ccccc43)N2C1=O [Compound 25, (4S,9aS)-4-((S)-2-(methylamino)propanamido)-5-oxo-8,8-diphenethyl-N—((R)-1,2,3,4-tetrahydronaphthalen-1-yl)octahydropyrrolo[2,1-b][1,3]oxazepine-7-carboxamide hydrochloride] | – | B (B=26-50% viability) | –
16 | CN[C@@H](C)C(=O)N[C@H]1CCO[C@H]2CC(CCc3ccccc3)(CCc3ccccc3)[C@@H](C(=O)N[C@@H]3CCCc4ccccc43)N2C1=O [Compound 26, (4S,9aS)-4-((S)-2-(methylamino)propanamido)-5-oxo-8,8-diphenethyl-N—((R)-1,2,3,4-tetrahydronaphthalen-1-yl)octahydropyrrolo[2,1-b][1,3]oxazepine-7-carboxamide hydrochloride] | – | C (C=>50% viability) | –
17 | C=CCC1C[C@@H]2SCC[C@H](NC(=O)[C@H](C)NC)C(=O)N2[C@@H]1C(=O)N[C@@H]1CCCc2ccccc21 (stereo partly drawn) [Compound 27, (4S,9aS)-8,8-allyl-4-((S)-2-(methylamino)propanamido)-5-oxo-N—((R)-1,2,3,4-tetrahydronaphthalen-1-yl)octahydropyrrolo[2,1-b][1,3]thiazepine-7-carboxamide hydrochloride] | – | B (B=26-50% viability) | –
18 | C=CCC1(CC=C)C[C@@H]2SCC[C@H](NC(=O)[C@H](C)NC)C(=O)N2[C@H]1C(=O)N[C@@H]1CCCc2ccccc21 [Compound 28, (4S,9aS)-8,8-diallyl-4-((S)-2-(methylamino)propanamido)-5-oxo-N—((R)-1,2,3,4-tetrahydronaphthalen-1-yl)octahydropyrrolo[2,1-b][1,3]thiazepine-7-carboxamide hydrochloride] | 26 to 50 | – | –
19 | C=CCC1C[C@@H]2SCC[C@H](NC(=O)[C@H](C)NC)C(=O)N2[C@@H]1C(=O)N[C@@H]1CCCc2ccccc21 (stereo partly drawn) [Compound 30, (4S,9aS)-8,8-allyl-4-((S)-2-(methylamino)propanamido)-5-oxo-N—((R)-1,2,3,4-tetrahydronaphthalen-1-yl)octahydropyrrolo[2,1-b][1,3]thiazepine-7-carboxamide hydrochloride] | – | B (B=26-50% viability) | –
20 | C=CCC1(CC=C)C[C@@H]2SCC[C@H](NC(=O)[C@H](C)NC)C(=O)N2[C@@H]1C(=O)N[C@@H]1CCCc2ccccc21 [Compound 31, (4S,9aS)-8,8-diallyl-4-((S)-2-(methylamino)propanamido)-5-oxo-N—((R)-1,2,3,4-tetrahydronaphthalen-1-yl)octahydropyrrolo[2,1-b][1,3]thiazepine-7-carboxamide hydrochloride] | – | B (B=26-50% viability) | –
21 | CN[C@@H](C)C(=O)N[C@H]1Cc2cc(OC)ccc2[C@H]2CC(C)(C)C(C(=O)N[C@@H]3CCCc4ccccc43)N2C1=O (stereo partly shown) [Compound 34] | – | – | % viability after treatment with 10 micromolar of test compound (SKOV-3 cells): C (C=>50% viability)
22 | CCC1(CC)C[C@@H]2SCC[C@H](NC(=O)[C@H](C)NC)C(=O)N2[C@@H]1C(=O)N[C@@H]1CCCc2ccccc21 [Compound 35, (4S,9aS)-8,8-diethyl-4-((S)-2-(methylamino)propanamido)-5-oxo-N—((R)-1,2,3,4-tetrahydronaphthalen-1-yl)octahydropyrrolo[2,1-b][1,3]thiazepine-7-carboxamide hydrochloride] | – | A (A=0-25% viability) | –
